In patent US11548900B2, “Oxazino-quinazoline and oxazino-quinoline type compound, preparation method and uses thereof” (BEIJING SCITECH-MQ PHARMACEUTICALS LIMITED, priority 2018, dated 2023) one finds IC50 data, which are given here for 9 compounds.

Usually IC50 stands for the concentration that inhibits the measured activity by half.

One assay has as its system BT474 cells. Briefly: Inhibition of cell proliferation, BT474 (CCK-8, 72 h). The format is cell-based. The note with it: Homo sapiens, BT-474, 72 h incubation. The procedure, abridged:
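BT474 and HCC827 seeded at 10,000 and 3000 cells/well respectively, cultured overnight, then exposed to 10-point 3-fold compound dilutions (top stock 10 mM; 0.25% DMSO final) for 72 h. Viability by CCK-8, OD450; survival normalised to untreated and cell-free blanks, IC50 from curve fit.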

The test system of the next assay is HCC827 cells. Put plainly: Inhibition of cell proliferation, HCC827 (CCK-8, 72 h). The following applies: Homo sapiens, 72 h incubation. The format is cell-based. How it is done:
The assay for the inhibition of cell proliferation by small molecular compounds was carried out using the method as follows:
1. 600 μL pancreatin was added to a T75 cell culture flask, which was digested in a 37° C. incubator for about 1 min before 5 mL of DMEM complete culture solution was added, blew evenly, transferred to a 15 mL centrifuge tube, and centrifuged at 1000 rpm for 4 min;
2. The supernatant was removed and 5 mL DMEM complete culture solution was added, blew evenly, and 10 μL cell suspension was taken and mixed with 10 μL 0.4% Trypan Blue, and counted using a cell counter;
3. BT474 and HCC827 cell lines were seeded in 96-well plates at a cell density of 10,000 and 3000 cells/well/80 μL, respectively, and cultured overnight. Only sterile water was added to the 36 wells on the periphery of the 96-well plate without adding cells, and only the 60 wells in the center of the 96-well plate were used for cell assays and controls;
4. Dilution of compounds: the compounds were diluted with a 3-fold dilution to make 10 concentrations in total with an initial concentration of 10 mM;
5. 20 μL of different compounds with different concentrations were added to each well, and 20 μL of complete culture solution was added to the remaining wells. The final concentration of DMSO in each well is 0.25%;
6. After 72 h of incubation, 10 μL CCK-8 reagent was added to each well, and incubated at 37° C. for 1-2 h; and the OD value was read at 450 nm;
7. Cell survival rate (%)=[(As−Ab)/(Ac−Ab)]*100%
As: Assay well (medium containing cell, CCK-8, compound)
Ac: Control well (medium containing cell, CCK-8)
Ab: Blank well (CCK-8, medium without cell and compound)
8. The value was imported into Graphpad Prism5 software for the calculation of IC50s (compound concentration at which 50% maximum survival rate is observed).

Another assay has as its target HER2 kinase (Homo sapiens (Human), UniProt P04626). Put plainly: Inhibition of HER2 kinase activity (ULight-labeled PolyGT substrate). The assay is classed as biochemical. The following applies: HER2 kinase 10 nM, ATP 10 μM, 2 hours. The procedure, abridged:
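HER2 kinase at 10 nM with 10 μM ATP and 100 nM ULight-PolyGT, 5 min enzyme–compound preincubation, then 2 h reaction at room temperature in the dark. Compounds at 11 3-fold concentrations, 2.5 μM top to 0.042 nM, 1% DMSO, duplicates. TR-FRET 665/615 ratio; IC50 from inhibition versus DMSO and no-compound controls.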

Molecules are shown by their SMILES.

Chain of HER2 kinase (P04626 23-1255): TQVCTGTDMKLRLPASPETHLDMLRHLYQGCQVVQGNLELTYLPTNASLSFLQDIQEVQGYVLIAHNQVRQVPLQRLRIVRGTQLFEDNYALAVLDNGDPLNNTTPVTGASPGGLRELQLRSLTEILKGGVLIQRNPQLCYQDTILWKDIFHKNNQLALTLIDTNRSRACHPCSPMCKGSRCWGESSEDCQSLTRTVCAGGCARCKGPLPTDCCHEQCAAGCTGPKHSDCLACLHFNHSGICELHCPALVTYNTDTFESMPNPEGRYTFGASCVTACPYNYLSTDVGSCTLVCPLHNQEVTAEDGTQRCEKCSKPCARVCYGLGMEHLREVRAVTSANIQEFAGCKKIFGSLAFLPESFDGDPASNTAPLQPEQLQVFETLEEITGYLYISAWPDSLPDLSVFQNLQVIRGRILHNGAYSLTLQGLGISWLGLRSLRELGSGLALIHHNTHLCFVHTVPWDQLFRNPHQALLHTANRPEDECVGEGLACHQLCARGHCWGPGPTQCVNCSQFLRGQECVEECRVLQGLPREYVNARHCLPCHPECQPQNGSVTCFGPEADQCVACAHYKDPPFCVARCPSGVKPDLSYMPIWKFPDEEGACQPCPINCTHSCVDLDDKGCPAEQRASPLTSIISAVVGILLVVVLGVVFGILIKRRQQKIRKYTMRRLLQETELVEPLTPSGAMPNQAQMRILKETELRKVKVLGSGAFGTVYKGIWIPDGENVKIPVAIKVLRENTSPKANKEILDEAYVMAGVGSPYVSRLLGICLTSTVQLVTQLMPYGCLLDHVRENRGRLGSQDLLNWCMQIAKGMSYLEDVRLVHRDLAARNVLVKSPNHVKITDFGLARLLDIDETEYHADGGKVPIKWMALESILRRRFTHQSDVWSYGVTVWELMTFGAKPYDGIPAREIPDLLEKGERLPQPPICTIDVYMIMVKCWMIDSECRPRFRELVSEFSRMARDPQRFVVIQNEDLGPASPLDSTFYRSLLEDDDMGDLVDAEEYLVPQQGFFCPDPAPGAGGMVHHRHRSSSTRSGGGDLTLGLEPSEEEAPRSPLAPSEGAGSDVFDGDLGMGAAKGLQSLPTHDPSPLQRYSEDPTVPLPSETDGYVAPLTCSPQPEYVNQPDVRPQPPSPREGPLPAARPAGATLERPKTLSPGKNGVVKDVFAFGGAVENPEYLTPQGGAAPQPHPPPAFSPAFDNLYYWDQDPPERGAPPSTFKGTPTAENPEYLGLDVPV

In the case of `CN(C)C/C=C/C(=O)N1CCOc2c1ccc1ncnc(Nc3ccc(Oc4ccccc4)c(F)c3)c21` [Example 58, (E)-4-(dimethylamino)-1-(10-((3-fluoro-4-phenoxyphenyl)amino)-2,3-dihydro-4H-[1,4]oxazino[2,3-f]quinazolin-4-yl)but-2-en-1-one], the half-inhibitory concentration (IC50) is at most 50 nM in the assay on BT474 cells, 50 to 500 nM with HCC827 cells and at most 50 nM on HER2 kinase.

`CN(C)C/C=C/C(=O)N1CCOc2c1ccc1ncnc(Nc3ccc(OCc4ccccc4)cc3)c21` [Example 78, (E)-1-(10-((4-(benzyloxy)phenyl)amino)-2,3-dihydro-4H-[1,4]oxazino[2,3-f]quinazolin-4-yl)-4-(dimethylamino)but-2-en-1-one]: the IC50 is at most 50 nM with BT474 cells, 500 to 5000 nM with HCC827 cells and at most 50 nM against HER2 kinase.

For `CN(C)C/C=C/C(=O)N1CCOc2c1ccc1ncnc(Nc3ccc(OCc4ccccc4F)cc3)c21` [Example 79, (E)-4-(dimethylamino)-1-(10-((4-((2-fluorobenzyl)oxy)phenyl)amino)-2,3-dihydro-4H-[1,4]oxazino[2,3-f]quinazolin-4-yl)but-2-en-1-one], the concentration for half-maximal inhibition (IC50) with BT474 cells was at most 50 nM; in the assay on HCC827 cells, 500 to 5000 nM; against HER2 kinase, at most 50 nM.

On to `CN(C)C/C=C/C(=O)N1CCOc2c1ccc1ncnc(Nc3ccc(OCc4ccccc4Cl)cc3)c21` [Example 80, (E)-4-(dimethylamino)-1-(10-((4-((2-chlorobenzyl)oxy)phenyl)amino)-2,3-dihydro-4H-[1,4]oxazino[2,3-f]quinazolin-4-yl)but-2-en-1-one], for which the half-inhibitory concentration (IC50) is at most 50 nM with BT474 cells, 500 to 5000 nM in the assay on HCC827 cells and at most 50 nM against HER2 kinase.

In the case of `Cc1ccccc1COc1ccc(Nc2ncnc3ccc4c(c23)OCCN4C(=O)/C=C/CN(C)C)cc1` [Example 81, (E)-4-(dimethylamino)-1-(10-((4-((2-methylbenzyl)oxy)phenyl)amino)-2,3-dihydro-4H-[1,4]oxazino[2,3-f]quinazolin-4-yl)but-2-en-1-one], the half-maximal inhibitory concentration (IC50) is at most 50 nM in the assay with BT474 cells, 500 to 5000 nM with HCC827 cells and at most 50 nM against HER2 kinase.

Turning to `COc1ccccc1COc1ccc(Nc2ncnc3ccc4c(c23)OCCN4C(=O)/C=C/CN(C)C)cc1` [Example 82, (E)-4-(dimethylamino)-1-(10-((4-((2-methoxybenzyl)oxy)phenyl)amino)-2,3-dihydro-4H-[1,4]oxazino[2,3-f]quinazolin-4-yl)but-2-en-1-one], the concentration for half-maximal inhibition (IC50) was at most 50 nM with BT474 cells, 500 to 5000 nM with HCC827 cells and at most 50 nM against HER2 kinase.

Turning to `Cc1cccc(COc2ccc(Nc3ncnc4ccc5c(c34)OCCN5C(=O)/C=C/CN(C)C)cc2)c1` [Example 84, (E)-4-(dimethylamino)-1-(10-((4-((3-methylbenzyl)oxy)phenyl)amino)-2,3-dihydro-4H-[1,4]oxazino[2,3-f]quinazolin-4-yl)but-2-en-1-one], the IC50 with BT474 cells is at most 50 nM; in the assay with HCC827 cells, 50 to 500 nM; on HER2 kinase, at most 50 nM.

On to `CN(C)C/C=C/C(=O)N1CCOc2c1ccc1ncnc(Nc3ccc(OCc4cccc(C#N)c4)cc3)c21` [Example 85, (E)-4-(dimethylamino)-1-(10-((4-((3-cyanobenzyl)oxy)phenyl)amino)-2,3-dihydro-4H-[1,4]oxazino[2,3-f]quinazolin-4-yl)but-2-en-1-one], for which the half-maximal inhibitory concentration (IC50) in the assay on BT474 cells is at most 50 nM; in the assay with HCC827 cells, 500 to 5000 nM; on HER2 kinase it was at most 50 nM.

As to `O=C(/C=C/CNC1CC1)N1CCOc2c1ccc1ncnc(Nc3ccc(OCc4ccccn4)c(Cl)c3)c21` [Example 101, (E)-1-(10-((3-chloro-4-(pyridin-2-ylmethoxy)phenyl)amino)-2,3-dihydro-4H-[1,4]oxazino[2,3-f]quinazolin-4-yl)-4-(cyclopropylamino)but-2-en-1-one], the 50% inhibitory concentration (IC50) with HCC827 cells lay within 500 to 5000 nM; against HER2 kinase, 50 to 500 nM.
